Test results taken from paper PMC6010092, “Novel hits for acetylcholinesterase inhibition derived by docking-based screening on ZINC database” (Journal of Enzyme Inhibition and Medicinal Chemistry, 2018).
“Also recorded” adds a separate entry of the source. Where two headings read alike, the source gives them in different places.

Key:
NEURO-2A cells [1] = experiment: Neurotoxicity test, MTT-dye reduction assay; type: cell-based; settings: for IC50: Mus musculus, N2a, 72-h incubation, MTT, read-out: IC50 Neuro2A; for Neurotoxicity on Neuro-2A cells (in words): concentrations up to 100 µM
Procedure: Murine neuroblastoma NEURO-2 A cells (German collection DSMZ, Braunschweig, Germany) were cultivated under standard conditions: complete medium (90% DMEM, 10% heat-inactivated FBS, and 1 × non-essential amino acids); 37 °C and5% CO2 in fully humidified atmosphere. The cell line was kept in the logarithmic growth phase by splitting 1:4 once a week using trypsin/EDTA. About 30% of the cells grow like neuronal cells. For the experimental evaluation of the cytotoxicity NEURO-2A, cells were plated in 96-well flat-bottomed cell culture plates at the recommended density of 1 × 10^6 cells/25 cm^2. After 24 h, the cells were treated with various concentrations of the investigational compounds and after 72-h incubation, a MTT-dye reduction assay was performed. Briefly, at the end of incubation, a MTT stock solution (10 mg/ml in PBS) was added (10 µL/well). Plates were further incubated at 37 °C for 4 h. Next, the formazan crystals were dissolved by the addition of 110 µL/well 5% formic acid in 2-propanol (v/v). Absorption was measured at 580 nm wavelength on an automated ELISA reader Labexim LMR1. At least six wells per concentration were used, and data were processed using the GraphPad Prism 5.0 software 2.

PAMPA BBB permeability = type: in vitro ADME; settings: −logPe, pH 7.4, 25 °C, 4 h, lipid BBB-1
Procedure: The intestinal and BBB permeabilities were measured by PAMPA Permeability Analyzer (pION Inc.) at the following settings: wavelength analysed 250–500 nm, pH 7.4, temperature 25 °C, permeation time 4 h, lipid formulation GIT-0 and stirring 60 rpm and BBB-1 and no stirring, respectively. […]. Carbamazepine, ketoprofen, and ranitidine were used as controls for intestinal permeability. Theophylline, progesterone, and propranolol were used as controls for BBB permeability.

[2] = PAMPA GIT (intestinal) permeability; type: in vitro ADME; settings: −logPe, pH 6.2, 25 °C, 4 h, lipid GIT-0
[3] = target: T1, AChE from Electrophorus electricus (eeAChE) (Electrophorus electricus, UniProt O42275); experiment: biochemical; type: binding
T1 construct: purchased Sigma Aldrich
T1 sequence (O42275 24-633): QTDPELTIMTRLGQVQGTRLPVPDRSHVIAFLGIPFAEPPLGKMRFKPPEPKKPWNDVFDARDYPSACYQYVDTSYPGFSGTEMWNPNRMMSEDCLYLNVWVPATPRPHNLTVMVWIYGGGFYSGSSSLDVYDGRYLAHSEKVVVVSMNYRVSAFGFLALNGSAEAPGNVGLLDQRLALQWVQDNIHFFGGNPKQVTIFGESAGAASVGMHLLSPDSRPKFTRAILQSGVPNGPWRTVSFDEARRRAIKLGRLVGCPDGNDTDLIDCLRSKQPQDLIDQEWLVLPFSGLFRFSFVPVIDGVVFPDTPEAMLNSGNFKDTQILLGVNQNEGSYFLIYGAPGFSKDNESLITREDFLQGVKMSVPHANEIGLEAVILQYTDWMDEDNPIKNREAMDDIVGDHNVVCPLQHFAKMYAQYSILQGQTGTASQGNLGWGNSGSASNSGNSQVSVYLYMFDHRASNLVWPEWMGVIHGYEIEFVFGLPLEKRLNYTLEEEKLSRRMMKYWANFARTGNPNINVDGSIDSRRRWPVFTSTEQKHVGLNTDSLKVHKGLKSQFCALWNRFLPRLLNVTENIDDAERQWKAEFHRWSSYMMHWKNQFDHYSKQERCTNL
Procedure: The ITC measurements[40] were performed on NanoITC tool (TA Instruments, Lindon, UT) with 190 µL sample cell and 50 µL syringe. […] The tested compounds were prepared in 5 mM stock solutions in ethanol and diluted to 0.5 mM in 50 mM Tris-HCl pH 7.4 buffer. All samples were degassed prior the experiments. The AChE solution was placed into the sample cell and titrated by the tested compounds in 25 steps of 2 µL at 5 min intervals at 25 °C. The blank samples (buffer lacking AChE) were titrated at the same conditions. The corresponding Kd values were calculated using NanoAnalyze software (TA Instruments, Lindon, UT).

[4] = cited from earlier work
NEURO-2A cells [5] = settings: read-out: IC50 Neuro2A; cited from earlier work

| SMILES | IC50 (NEURO-2A cells [1]) | Neurotoxicity on Neuro-2A cells (in words) (NEURO-2A cells [1]) | pPe pH 7.4 BBB PAMPA (PAMPA BBB permeability) | pPe pH 6.2 GIT PAMPA [2] | Kd ([3]; ITC, read-out: Kd) | Kd ITC ([3]; 25 °C, pH 7.4) | Kd ([3]; 25 °C, pH 7.4, read-out: Kd ITC) | CL [4] | VD^ss [4] | t1/2 [4] | IC50 (NEURO-2A cells [5]) |
| --- | --- | --- | --- | --- | --- | --- | --- | --- | --- | --- | --- |
| CN(Cc1ccccc1-c1ccccc1)C(=O)CCn1ccccc1=O [Compound 1, N-Methyl-3-(2-oxo-1-pyridyl)-N-[(2-phenylphenyl)methyl]propanamide] | > 100000 nM | non-toxic | 4.540 | 4.268 | 525 nM |  |  |  |  |  |  |
| O=C(CCn1ccc2ccccc21)NCCCn1cnc2ccccc21 [Compound 2, N-[3-(benzimidazol-1-yl)propyl]-3-indol-1-yl-propanamide] | > 100000 nM | absence of toxicity; also recorded: non-toxic | 4.452 | 4.339 | 618 nM |  |  |  |  |  |  |
| O=C(CCn1nc(-c2ccccc2)ccc1=O)NCCc1ccccc1 [Compound 3, 3-(6-Oxo-3-phenylpyridazin-1(6H)-yl)-N-phenethylpropanamide] | > 100000 nM | non-toxic | 4.294 | 4.207 | 555 nM |  |  |  |  |  |  |
| Cn1cc(CNCc2ccc3ncccc3c2)c(-c2ccccc2F)n1 [Compound 4, 1-[3-(2-fluorophenyl)-1-methyl-pyrazol-4-yl]-N-(6-quinolylmethyl) methanamine] | 35000 nM |  | 4.258 | 4.251 | 618 nM |  |  |  |  |  |  |
| O=C(Cn1ccc2ccccc21)NCCOc1cccc2cccnc12 [Compound 5, 2-indol-1-yl-N-[2-(8-quinolyloxy)ethyl]acetamide] | > 100000 nM | non-toxic | 4.146 | 4.230 | 517 nM |  |  |  |  |  |  |
| Cn1cc(CNC(=O)N2CCC(C(N)=O)CC2)c(-c2ccccc2)n1 [Compound 6, N^1-((1-methyl-3-phenyl-1H-pyrazol-4-yl)methyl)piperidine-1,4-dicarboxamide] | > 100000 nM | non-toxic | 5.008 | 4.428 | 613 nM |  |  |  |  |  |  |
| Cn1cc(CNCCc2cccc3cccnc23)c(-c2cccnc2)n1 [Compound 7, N-((1-methyl-3-(pyridin-3-yl)-1H-pyrazol-4-yl)methyl)-2-(quinolin-8-yl)ethanamine] | > 100000 nM | non-toxic | 4.267 | 4.246 | 577 nM |  |  |  |  |  |  |
| COc1ccc(CC(=O)N[C@@H](CO)[C@@H](O)c2ccc(N)cc2)cc1 [Compound 8, N-((1S,2S)-1-(4-aminophenyl)-1,3-dihydroxypropan-2-yl)-2-(4-methoxyphenyl)acetamide] | > 100000 nM | non-toxic | 4.731 | 4.469 | 682 nM |  |  |  |  |  |  |
| O=C(Cn1c(=O)[nH]c(=O)c2ccccc21)NCCc1cccc(F)c1 [Compound 9, 2–(2,4-dioxoquinazolin-1-yl)-N-[2-(3-fluorophenyl)ethyl]acetamide] | > 100000 nM |  | 4.628 | 4.361 |  | does not interact; also recorded: Non-binder |  |  |  |  |  |
| CC(C)n1cc(CC(=O)NCCc2ccc(O)cc2)c2ccccc21 [Compound 10, N-[2-(4-hydroxyphenyl)ethyl]-2-(1-isopropylindol-3-yl)acetamide] | 53000 nM | toxic | 4.311 | 4.202 |  |  | 735 nM |  |  |  |  |
| COc1ccc2c3c1O[C@H]1C[C@@H](O)C=C[C@@]31CCN(C)C2 [GAL, galantamine] |  |  |  |  |  |  |  | 5.60[47] mL/min/kg | 2.30[47] L/kg | 5.30[47] h | > 50000 nM |
